Like-named read-outs stand apart in the source and are kept apart here.
Legend:
acute ischemic stroke = details: animal models versus humans; cited from earlier work
[1] = test system: perimenopausal symptoms, including hot flashes, sweating, and discomfort; experiment: Oral treatment of peri- and post-menopausal symptoms in one patient; format: in vivo, human
Protocol: The reduced form of TEMPOL (TEMPOL-H) or equivalent pharmacologically-active spin label/spintrap is prepared by mixing together 2 grams of TEMPOL or a pharmacologically effective amount of another spin-label or spin trap such as methynitrosopropane, 20 grams of ascorbic acid or other reducing compound in 100 ml of distilled water. The formulation is used as is. The solution is slightly-bitter. The formulation can be administered diluted in a suitable liquid such as juice, tea, or coffee. An equivalent dry form as 10 mg of tempol mixed with 100 mg of ascorbic acid or equivalent reducing substance can be easily prepared in capsule or tablet form.
One-half ml of the above solution, comprising 10 mg TEMPOL plus 100 mg ascorbic acid, was administered orally 1-3 times a day to a 50 kg person with perimenopausal symptoms, including hot flashes, sweating, and discomfort.
Parental modes of administration such as intravenous, intramuscular, subcutaneous, intraperitoneal, transrectal and so forth are also possible, as are topical modes of administration such as in lotions, creams, gels, and topically-compatible suspensions and solutions.

SHR = details: cited from earlier work
[2] = test system: arterioles from intact and OVE females; details: cited from earlier work
[3] = test system: fibrocystic disease of breast; details: in vivo; cited from earlier work
[4] = 10 mg TEMPOL plus 100 mg ascorbic acid orally 1-3 times a day, 50 kg person

## CC(C)(C)[N+]([O-])=Cc1ccc(S(=O)(=O)[O-])cc1S(=O)(=O)[O-].[Na+].[Na+] [NXY-059, disulfonyl PBN]
Acute ischemic stroke
  neuroprotective efficacy: effective in animal models, but not in humans

## CC(C)(C)[N+]([O-])=Cc1ccccc1 [Phenylbutylnitrone, 1-alpha-phenyl-tert-butyl nitrone]
[1]; 100 mg dose per day
  efficacy on perimenopausal symptoms: also effective

## CC1(C)CC(O)CC(C)(C)N1[O] [TEMPOL, 4-hydroxy-TEMPO]
[1]; Tempol itself, without reducing agent, at the same doses
  efficacy on perimenopausal symptoms: effective at the same doses
SHR; male SHR and female SHR given tempol for the first 15 weeks of life
  antihypertensive response: had an antihypertensive response
SHR; postmenopausal female SHR
  antihypertensive response: no response was observed
SHR; young female versus young male SHR, and after menopause
  BP lowering by sex and age: more effective in lowering the BP of young female than young male SHR and became less effective after menopause
[2]
  flow-induced increases in NO and subsequent vasodilation: blunted flow-induced increases in NO and subsequent vasodilation

## CC1(C)CC(O)CC(C)(C)N1O [TEMPOL-H, the hydroxylamine reduced form of the nitroxide 4-hydroxy-2,2,6,6-tetramethylpiperidin-1-yloxy]
[1]; 10 mg TEMPOL plus 100 mg ascorbic acid orally 1-3 times a day
  skin changes typical of menopause: yet to develop the skin changes typical of menopause
[1]; [4]
  effect on perimenopausal symptoms: disappearance of hot flashes, sweating, and discomfort
  time to first results of treatment: 1-2 weeks
[1]; after long-term relief, treatment stopped
  symptoms on cessation of treatment: symptoms eventually reappear on cessation of treatment
[1]; same patient, menses stopped
  perimenopausal symptoms during earlier TEMPOL-H treatment for fibrocystic disease of breast: had not presented with perimenopausal symptoms
[1]; treatment resumed after cessation
  symptoms upon resumption of treatment: symptoms disappear
[3]
  efficacy in fibrocystic disease of breast: effective
